{
  "source": "patent US20160251350A1",
  "about": "“CRYSTALLINE FORMS OF A PYRROLOPYRIDINE COMPOUND” (Genentech, Inc., priority 2015, published 2016)",
  "key": {"[1]": {"assay": "Hygroscopicity / water re-absorption at controlled relative humidity (DVS)", "assay_type": "physicochemical", "from_the_text": "The present invention is directed, inter alia, to crystalline forms of (R)—N-(4-(3-aminopiperidin-1-yl)-5-bromo-1H-pyrrolo[2,3-b]pyridin-3-yl)cyclopropanecarboxamide and salts, hydrates, and solvates thereof. The crystalline forms of the present invention can be identified by unique solid state signatures with respect to, for example, differential scanning calorimetry (DSC), X-ray powder diffraction (XRPD), and other solid state methods. Further characterization with respect to water or solvent content of the crystalline forms of the present invention can be gauged by any of the following methods for example, thermogravimetric analysis (TGA), DSC and the like. For DSC, it is known that the temperatures observed will depend upon sample purity, the rate of temperature change, as well as sample preparation technique and the particular instrument employed. Thus, the values reported herein relating to DSC thermograms can vary by about ±6° C. For desolvation events, DSC thermograms may vary by more than ±6° C. depending on instrument configuration and/or sample quantity. The values reported herein relating to DSC thermograms can also vary by about ±20 joules per gram. For XRPD, the relative intensities of the peaks can vary, depending upon the sample preparation technique, the sample mounting procedure and the particular instrument employed. Moreover, instrument variation and other factors can often affect the 2θ values. Therefore, the peak assignments of diffraction patterns can vary by about ±0.2 ° 2θ. The relative intensities of the reported peaks can also vary. For TGA, the features reported herein can vary by about ±5° C. The TGA features reported herein can also vary by about ±2% weight change due to, for example, sample variation. Further characterization with respect to hygroscopicity of the crystalline form can be gauged by, for example, dynamic vapor sorption (DVS). The DVS features reported herein can vary by about ±5% relative humidity. The DVS features reported herein can also vary by about ±5% weight change.\n(R)—N-(4-(3-aminopiperidin-1-yl)-5-bromo-1H-pyrrolo[2,3-b]pyridin-3-yl)cyclopropanecarboxamide di-ethane sulfonic acid salt: (R)—N-(4-(3-aminopiperidin-1-yl)-5-bromo-1H-pyrrolo[2,3-b]pyridin-3-yl)cyclopropanecarboxamide di-ethanesulfonic acid salt hydrate was heated to 130° C. in a DSC apparatus and then cooled to room temperature. […] The physical properties of the non-solvated di-esylate salt of (R)—N-(4-(3-aminopiperidin-1-yl)-5-bromo-1H-pyrrolo[2,3-b]pyridin-3-yl)cyclopropanecarboxamide are summarized in Table 50 below."}, "[2]": {"assay": "Abbreviated excipient compatibility study at 50° C. with 20% H2O added", "assay_type": "physicochemical", "details": "4 weeks, common diluents and disintegrants", "protocol": "To further investigate the chemical properties of these crystal forms, an abbreviated excipient compatibility study was run at 50° C. with 20% H2O added. The excipients used in the study consisted of common diluents and disintegrants and the study was conducted over a period of 4 weeks."}, "[3]": {"assay": "Powder-in-Capsule (PiC) formulation stability", "assay_type": "physicochemical", "details": "15 mg in Size 0 hard gelatin capsules, 2-months at 5° C., ambient and accelerated conditions", "protocol": "(§1) Chemical characteristics of (R)—N-(4-(3-aminopiperidin-1-yl)-5-bromo-1H-pyrrolo[2,3-b]pyridin-3-yl)cyclopropanecarboxamide free base (Form A) and maleate salt crystal forms: The stability of the crystal forms described in Examples 4 and 27 was measured neat as well as in a Powder-in-Capsule (PiC) formulation. The stability as neat powder was measured over a period of 1-year for the free base and 3-months for the maleate salt, under ambient (25° C./60% RH) and accelerated (40° C./75% RH) conditions. […] It should be noted that the maleate salt used in the neat powder stability study contained high levels (˜9% wt./wt.) of residual tetrahydrofuran (THF). The PiC stability using 15 mg of (R)—N-(4-(3-aminopiperidin-1-yl)-5-bromo-1H-pyrrolo[2,3-b]pyridin-3-yl)cyclopropanecarboxamide in Size 0 hard gelatin capsules was carried out over a period of 2-months at 5° C., ambient and accelerated conditions."}, "[4]": {"assay": "Oral absorption of PiC formulations versus solution, preclinical pharmacokinetic study", "assay_type": "in vivo", "details": "canines, 3 mg/kg, crossover", "protocol": "Biological characteristics of (R)—N-(4-(3-aminopiperidin-1-yl)-5-bromo-1H-pyrrolo[2,3-b]pyridin-3-yl)cyclopropanecarboxamide free base (Form A) and maleate salt crystal forms: The oral absorption of the crystal forms described in Examples 4 and 27 as PiC formulations was investigated in a preclinical pharmacokinetic study conducted in canines using a reduced Latin square crossover design at 3 mg/kg to compare the solid formulations to a solution of (R)—N-(4-(3-aminopiperidin-1-yl)-5-bromo-1H-pyrrolo[2,3-b]pyridin-3-yl)cyclopropanecarboxamide."}, "[5]": {"assay": "Aqueous solubility", "assay_type": "physicochemical"}, "[6]": {"assay": "Neat powder stability under ambient (25° C./60% RH) and accelerated (40° C./75% RH) conditions", "assay_type": "physicochemical", "protocol": "as §1"}},
  "data": [
    {"smiles": "Cl.Cl.N[C@@H]1CCCN(c2c(Br)cnc3[nH]cc(NC(=O)C4CC4)c23)C1", "note": "[Example 29, (R)—N-(4-(3-aminopiperidin-1-yl)-5-bromo-1H-pyrrolo[2,3-b]pyridin-3-yl)cyclopropanecarboxamide di-HCl salt]", "values": [
      {"measurement": "DVS form conversion", "setting": "[1]; above 80% RH", "result": "dihydrate form above 80% RH."},
      {"measurement": "DVS hygroscopicity", "setting": "[1]; below 80% RH", "result": "Non-hygroscopic below 80% RH. Converts to a crystalline"}
    ]},
    {"smiles": "Br.Br.N[C@@H]1CCCN(c2c(Br)cnc3[nH]cc(NC(=O)C4CC4)c23)C1", "note": "[Example 30, (R)—N-(4-(3-aminopiperidin-1-yl)-5-bromo-1H-pyrrolo[2,3-b]pyridin-3-yl)cyclopropanecarboxamide di-HBr salt]", "values": [
      {"measurement": "DVS hygroscopicity", "setting": "[1]; below 80% RH", "result": "Non-hygroscopic below 80% RH. Upon desorption the solids"}
    ]},
    {"smiles": "N[C@@H]1CCCN(c2c(Br)cnc3[nH]cc(NC(=O)C4CC4)c23)C1", "note": "[Form A, (R)—N-(4-(3-aminopiperidin-1-yl)-5-bromo-1H-pyrrolo[2,3-b]pyridin-3-yl)cyclopropanecarboxamide Form A]", "values": [
      {"measurement": "Degradation with excipients", "setting": "[2]; listed as free base", "result": "significant degradation with lactose and Ac-Di-Sol® (croscarmellose sodium)"},
      {"measurement": "Degradation with excipients", "setting": "[2]; listed as free base Form A", "result": "more stable with excipients than the maleate salt"},
      {"measurement": "PiC stability", "setting": "[3]", "result": "did not cause any significant physical or chemical degradation"},
      {"measurement": "Oral absorption", "setting": "[4]", "result": "no significant differences in absorption"},
      {"measurement": "solubility", "setting": "[5]; 0.1N HCl, simulated gastric fluid", "result": 49900, "unit": "µg/mL"},
      {"measurement": "solubility", "setting": "[5]; FasSIF pH 6.8", "result": 2400, "unit": "µg/mL"},
      {"measurement": "solubility", "setting": "[5]; fessif, FedSIF pH 5", "result": 10200, "unit": "µg/mL"},
      {"measurement": "solubility", "setting": "[5]; water, H2O", "result": 120, "unit": "µg/mL"},
      {"measurement": "Stability as neat powder", "setting": "[6]; 1-year, ambient (25° C./60% RH) and accelerated (40° C./75% RH)", "result": "very good stability with no chiral or achiral degradation observed under any condition"}
    ]},
    {"smiles": "CCS(=O)(=O)O.CCS(=O)(=O)O.N[C@@H]1CCCN(c2c(Br)cnc3[nH]cc(NC(=O)C4CC4)c23)C1", "note": "[anhydrate, (R)—N-(4-(3-aminopiperidin-1-yl)-5-bromo-1H-pyrrolo[2,3-b]pyridin-3-yl)cyclopropanecarboxamide di-ethane sulfonic acid salt]", "values": [
      {"measurement": "Water re-absorption", "setting": "[1]; 80% RH", "result": "re-absorbs water at 80% RH"}
    ]},
    {"smiles": "N[C@@H]1CCCN(c2c(Br)cnc3[nH]cc(NC(=O)C4CC4)c23)C1.O=C(O)/C=C\\C(=O)O", "note": "[maleate salt, Maleic acid salt of (R)—N-(4-(3-aminopiperidin-1-yl)-5-bromo-1H-pyrrolo[2,3-b]pyridin-3-yl)cyclopropanecarboxamide]", "values": [
      {"measurement": "DVS hygroscopicity", "setting": "[1]; at 80% RH", "result": "Non-hygroscopic"},
      {"measurement": "DVS weight gain", "setting": "[1]; at 80% RH", "result": 0.3, "unit": "% wt./wt."},
      {"measurement": "Degradation with excipients", "setting": "[2]", "result": "significant degradation with all excipients investigated"},
      {"measurement": "PiC stability", "setting": "[3]", "result": "stable"},
      {"measurement": "Oral absorption", "setting": "[4]", "result": "no significant differences in absorption"},
      {"measurement": "Aqueous Solubility", "setting": "[5]; at pH ≦7", "result": ">10", "unit": "at pH ≦7 mg/mL"},
      {"measurement": "Stability as neat powder", "setting": "[6]; 3-months, ambient and accelerated conditions, material contained ~9% wt./wt. residual THF", "result": "very slight degradation under accelerated conditions"}
    ]}
  ]
}
